pIC50: −log10 of the molar value.
Assays:
MRSA (ATCC 43300) = assay: Intrinsic antimicrobial activity (MIC) against MRSA; assay type: cell-based; details: Staphylococcus aureus, MRSA ATCC 43300; mean (n = 2); read-out: MIC MRSA
Procedure: (§1) The susceptibility of bacterial strains Staphylococcus aureus (ATCC 25923), Escherichia coli (ATCC 25922) and Pseudomonas aeruginosa (ATCC 27853) to antibiotics and compounds was determined using previously reported protocols. Additional antimicrobial evaluation against MRSA (ATCC 43300), Klebsiella pneumoniae (ATCC 700603), Acinetobacter baumannii (ATCC 19606), Candida albicans (ATCC 90028) and Cryptococcus neoformans (ATCC 208821) was undertaken at the Community for Open Antimicrobial Drug Discovery at The University of Queensland (Australia) according to their standard protocols, as reported previously.

E. coli ATCC 25922 = assay: Enhancement of erythromycin action against E. coli; assay type: cell-based, Escherichia coli; details: erythromycin at 10.9 µM
Procedure: (§2) Antibiotic enhancer concentrations were determined using previously reported protocols.

[1] = tested on: Staphylococcus aureus (ATCC 25923); assay: Intrinsic antimicrobial activity (MIC) against S. aureus; assay type: cell-based; details: ATCC25923, S. aureus ATCC 25923, mean (n = 3), read-out: MIC S. a
Procedure: as §1

Cytotoxicity assay = assay type: cell-based; details: human; HEK293 cells; mean (n = 2); read-out: Cytotoxicity: concentration of compound at 50% cytotoxicity (IC50)
Procedure: Cytotoxicity assays were conducted using the protocols previously reported.

[2] = tested on: Escherichia coli (ATCC 25922); assay: Intrinsic antimicrobial activity (MIC) against E. coli; assay type: cell-based; details: ATCC25922, E. coli ATCC 25922, mean (n = 3), read-out: MIC E. c
Procedure: as §1

[3] = tested on: Cryptococcus neoformans (ATCC 208821); assay: Intrinsic antifungal activity (MIC) against C. neoformans; assay type: cell-based; details: ATCC208821, C. neoformans ATCC 208821, mean (n = 2), read-out: MIC C. n
Procedure: as §1

[4] = tested on: Pseudomonas aeruginosa (ATCC 27853); assay: Intrinsic antimicrobial activity (MIC) against P. aeruginosa; assay type: cell-based; details: ATCC27853, P. aeruginosa ATCC 27853, mean (n = 3), read-out: MIC P. a
Procedure: as §1

human red blood cells = assay: Hemolytic assay; assay type: cell-based; details: mean (n = 2)
Procedure: Hemolysis assays were conducted using the protocols previously reported.

[5] = tested on: Acinetobacter baumannii (ATCC 19606); assay: Intrinsic antimicrobial activity (MIC) against A. baumannii; assay type: cell-based; details: ATCC19606, A. baumannii ATCC 19606, mean (n = 2), read-out: MIC A. b
Procedure: as §1

P. aeruginosa ATCC 27853 = assay: Enhancement of doxycycline action against P. aeruginosa; assay type: cell-based, Pseudomonas aeruginosa; details: doxycycline at 4.5 µM
Procedure: as §2

[6] = tested on: Candida albicans (ATCC 90028); assay: Intrinsic antifungal activity (MIC) against C. albicans; assay type: cell-based; details: ATCC90028, C. albicans ATCC 90028, mean (n = 2), read-out: MIC C. a
Procedure: as §1

[7] = tested on: Klebsiella pneumoniae (ATCC 700603); assay: Intrinsic antimicrobial activity (MIC) against K. pneumoniae; assay type: cell-based; details: ATCC700603, K. pneumoniae ATCC 700603, mean (n = 2), read-out: MIC K. p
Procedure: as §1

Structure (SMILES)	MIC (MRSA (ATCC 43300))	Eryth/E. c: concentration required to restore erythromycin activity (combination MIC) (E. coli ATCC 25922)	MIC [1]	pIC50 (Cytotoxicity assay)	MIC [2]	MIC [3]	MIC [4]	Hemolysis: concentration of compound at 10% hemolytic activity (HC10) (human red blood cells)	MIC [5]	Dox/P. a fold change (ratio between intrinsic MIC of the test compound and combination MIC) (P. aeruginosa ATCC 27853)	Dox/P. a: concentration required to restore doxycycline activity (combination MIC) (P. aeruginosa ATCC 27853)	MIC [6]	MIC [7]
Cc1ccc2[nH]cc(CC(=O)NCCCNCCCCCCNCCCNC(=O)Cc3c[nH]c4ccc(C)cc34)c2c1.O=C(O)C(F)(F)F.O=C(O)C(F)(F)F [Compound 17b, N^1,N^6-Bis(3-(2-(5-methyl-1H-indol-3-yl)acetamido)propyl)hexane-1,6-diaminium 2,2,2-trifluoroacetate]	≤ 0.31 µM	31.2 µM	31.2 µM	< 4.40	250 µM	≤ 0.31 µM	> 250 µM	23.1 µM	> 40 µM	> 8 fold	31.2 µM	40 µM	> 40 µM
O=C(Cc1c[nH]c2ccc(Br)cc12)NCCCNCCCCCCCCNCCCNC(=O)Cc1c[nH]c2ccc(Br)cc12.O=C(O)C(F)(F)F.O=C(O)C(F)(F)F [Compound 15d, N^1,N^8-Bis(3-(2-(5-bromo-1H-indol-3-yl)acetamido)propyl)octane-1,8-diaminium 2,2,2-trifluoroacetate]	≤ 0.26 µM	52.2 µM	13 µM	< 4.48	26.1 µM	≤ 0.26 µM	> 209 µM	10.1 µM	> 33 µM	> 4 fold	52.2 µM	2.09 µM	> 33 µM
O=C(Cc1c[nH]c2c(F)cccc12)NCCCNCCCCCCCCCCNCCCNC(=O)Cc1c[nH]c2c(F)cccc12.O=C(O)C(F)(F)F.O=C(O)C(F)(F)F [Compound 18e, N^1,N^10-Bis(3-(2-(7-fluoro-1H-indol-3-yl)acetamido)propyl)decane-1,10-diaminium 2,2,2-trifluoroacetate]	≤ 0.29 µM	57.8 µM	7.23 µM	< 4.43	116 µM	≤ 0.29 µM	> 231 µM	1.49 µM		1 fold	231 µM	2.31 µM	
Cc1cccc2c(CC(=O)NCCCNCCCCCCCCCCCCNCCCNC(=O)Cc3c[nH]c4c(C)cccc34)c[nH]c12.O=C(O)C(F)(F)F.O=C(O)C(F)(F)F [Compound 20f, N^1,N^12-Bis(3-(2-(7-methyl-1H-indol-3-yl)acetamido)propyl)dodecane-1,12-diaminium 2,2,2-trifluoroacetate]	≤ 0.28 µM	28.2 µM	28.2 µM	< 4.44	56.5 µM	≤ 0.28 µM	> 226 µM	≤0.28 µM		1 fold	> 226 µM	≤ 0.28 µM	
O=C(Cc1c[nH]c2ccccc12)NCCCNCCCCCCNCCCNC(=O)Cc1c[nH]c2ccccc12.O=C(O)C(F)(F)F.O=C(O)C(F)(F)F [Compound 14b, N^1,N^6-Bis(3-(2-(1H-indol-3-yl)acetamido)propyl)hexane-1,6-diaminium 2,2,2-trifluoroacetate]	< 0.2 µM	> 259 µM	129 µM	< 4.39	> 129 µM	< 0.2 µM	> 259 µM	>41 µM		> 2 fold	129 µM	> 41 µM	
Cc1cccc2c(CC(=O)NCCCNCCCCCCCNCCCNC(=O)Cc3c[nH]c4c(C)cccc34)c[nH]c12.O=C(O)C(F)(F)F.O=C(O)C(F)(F)F [Compound 20c, N^1,N^7-Bis(3-(2-(7-methyl-1H-indol-3-yl)acetamido)propyl)heptane-1,7-diaminium 2,2,2-trifluoroacetate]	< 0.2 µM	123 µM	3.83 µM	< 4.41	245 µM	< 0.2 µM	> 245 µM		> 39 µM	> 2 fold	123 µM	> 39 µM	> 39 µM
Cc1ccc2[nH]cc(CC(=O)NCCCNCCCCCCCCNCCCNC(=O)Cc3c[nH]c4ccc(C)cc34)c2c1.O=C(O)C(F)(F)F.O=C(O)C(F)(F)F [Compound 17d, N^1,N^8-Bis(3-(2-(5-methyl-1H-indol-3-yl)acetamido)propyl)octane-1,8-diaminium 2,2,2-trifluoroacetate]	≤ 0.3 µM	121 µM	15.1 µM	< 4.41	241 µM	≤ 0.3 µM	> 241 µM	0.42 µM		> 1 fold	241 µM	2.41 µM	
COc1cccc2c(CC(=O)NCCCNCCCCCCCCCCCCNCCCNC(=O)Cc3c[nH]c4c(OC)cccc34)c[nH]c12.O=C(O)C(F)(F)F.O=C(O)C(F)(F)F [Compound 19f, N^1,N^12-Bis(3-(2-(7-methoxy-1H-indol-3-yl)acetamido)propyl)dodecane-1,12-diaminium 2,2,2-trifluoroacetate]	≤ 0.27 µM	109 µM	13.6 µM	< 4.46	109 µM	≤ 0.27 µM	> 218 µM	10.7 µM		> 1 fold	218 µM	34.9 µM	
Cc1cccc2c(CC(=O)NCCCNCCCCCCCCCCNCCCNC(=O)Cc3c[nH]c4c(C)cccc34)c[nH]c12.O=C(O)C(F)(F)F.O=C(O)C(F)(F)F [Compound 20e, N^1,N^10-Bis(3-(2-(7-methyl-1H-indol-3-yl)acetamido)propyl)decane-1,10-diaminium 2,2,2-trifluoroacetate]	≤ 0.29 µM	> 233 µM	233 µM	< 4.43	> 233 µM	≤ 0.29 µM	> 233 µM	12.7 µM		1 fold	> 233 µM	18.7 µM	
O=C(Cc1c[nH]c2c(F)cccc12)NCCCNCCCCCCCCNCCCNC(=O)Cc1c[nH]c2c(F)cccc12.O=C(O)C(F)(F)F.O=C(O)C(F)(F)F [Compound 18d, N^1,N^8-Bis(3-(2-(7-fluoro-1H-indol-3-yl)acetamido)propyl)octane-1,8-diaminium 2,2,2-trifluoroacetate]	< 0.2 µM	> 239 µM	29.9 µM	< 4.42	> 239 µM	< 0.2 µM	> 239 µM	>38 µM		1 fold	> 239 µM	> 38 µM	
